This note sets out measurements from patent publication US20230053941A1, “MICROEMULSIONS WITH DICAMBA SALTS HAVING IMPROVED PROPERTIES” (MONSANTO TECHNOLOGY LLC, priority 2020, published 2023).

The structures appear in SMILES notation.

The data set in a line: Partition coefficient of compound (A) in solvents. Conditions: HPLC, approximately 25° C. In kind it is physicochemical. Here is the method: Experimental procedure for the respective solvent: (1) A solution of 10 g of compound (A) is prepared in 90 g of the respective solvent. (2) An aliquot of 10 g of the solution obtained in step (1) is added to 90 g of water in a glass bottle, which is shaken on a mechanical shaker for 4 hours at ambient temperature (approximately 25° C.). (3) The contents of the glass bottle are permitted to phase separate for 4 days at ambient temperature (approximately 25° C.). (4) Subsamples of the resulting oil and water phases are taken and analyzed by HPLC to determine the concentrations of compound (A) in oil (Co) and water phases (Cw) respectively. The subsamples are typically centrifuged before HPLC analysis to remove traces of organic solvent from the water phase.
A Partition Coefficient, analogous to the Octanol-Water Partition Coefficient, P, is calculated as Co/Cw. The Partition Coefficient is conveniently expressed as a logarithm […].
The ratio of determined concentrations of compound (A) in the solvent phase and the water phase typically is very large. […] In other cases, traces of the organic solvent are found in the water phase, even after centrifugation, so that the apparent concentration of oil-soluble herbicide observed in the water phase is misleadingly high. […]

Consider `CCOC(=O)COc1ncccc1Oc1cc(-n2c(=O)cc(C(F)(F)F)n(C)c2=O)c(F)cc1Cl` [Cmp. A, ethyl [3-[2-chloro-4-fluoro-5-(1-methyl-6-trifluoromethyl-2,4-dioxo-1,2,3,4-tetrahydropyrimidin-3-yl)phenoxy]-2-pyridyloxy]acetate], for which the “compound (A) in the water phase” value (acetophenone as organic solvent) is “undetectable” and the “compound (A) in the water phase” value (aromatic 200 ND as organic solvent) is given as “undetectable”.
